# Source: patent US8124793B2, “Derivatives of ethylene methanedisulfonate as cancer chemotherapeutic agents” (priority 2007, dated 2012)
# Tests used:
# Assay type in all cases: cell-based
# U-251 = assay: NCI screen, growth of human tumor cells: CNS Cancer U-251; conditions: U-251 (CNS Cancer), 10^−4 molar
# Description: (§1) In the NCI screening process, each compound was tested and described by a minimum of 60 data points. The test data include, but are not limited to the type of cancer, the molar concentration used in the screen, and the percent growth of the cancer. In some cases, NMR and elemental analysis were used for structural assignment.
# SW620 = assay: NCI screen, growth of human tumor cells: Colon Cancer SW620; conditions: SW620 (Colon Cancer), 10^−4 molar
# Description: as §1
# SK-MEL-5 = assay: NCI screen, growth of human tumor cells: Melanoma SK-MEL-5; conditions: SK-MEL-5 (Melanoma), 10^−4 molar
# Description: as §1
# SR = assay: NCI screen, growth of human tumor cells: Leukemia SR; conditions: SR (Leukemia), 10^−4 molar
# Description: as §1
# BT-549 = assay: NCI screen, growth of human tumor cells: Breast Cancer BT-549; conditions: BT-549 (Breast Cancer), 10^−4 molar
# Description: as §1
# OVCAR-4 = assay: NCI screen, growth of human tumor cells: Ovarian Cancer OVCAR-4; conditions: OVCAR-4 (Ovarian Cancer), 10^−4 molar
# Description: as §1
# HCT-15 = assay: NCI screen, growth of human tumor cells: Colon Cancer HCT-15; conditions: HCT-15 (Colon Cancer), 10^−4 molar
# Description: as §1
# SN12C = assay: NCI screen, growth of human tumor cells: Renal Cancer SN12C; conditions: SN12C (Renal Cancer), 10^−4 molar
# Description: as §1
# SF-539 = assay: NCI screen, growth of human tumor cells: CNS Cancer SF-539; conditions: SF-539 (CNS Cancer), 10^−4 molar
# Description: as §1
# PC-3 = assay: NCI screen, growth of human tumor cells: Prostate Cancer PC-3; conditions: PC-3 (Prostate Cancer), 10^−4 molar
# Description: as §1
# NCI-H23 = assay: NCI screen, growth of human tumor cells: Non-Small Cell Lung NCI-H23; conditions: NCI-H23 (Non-Small Cell Lung), 10^−4 molar
# Description: as §1
# ACHN = assay: NCI screen, growth of human tumor cells: Renal Cancer ACHN; conditions: ACHN (Renal Cancer), 10^−4 molar
# Description: as §1
# NCI-H460 = assay: NCI screen, growth of human tumor cells: Non-Small Cell Lung NCI-H460; conditions: NCI-H460 (Non-Small Cell Lung), 10^−4 molar
# Description: as §1
# RPMI-8226 = assay: NCI screen, growth of human tumor cells: Leukemia RPMI-8226; conditions: RPMI-8226 (Leukemia), 10^−4 molar
# Description: as §1
# DU-145 = assay: NCI screen, growth of human tumor cells: Prostate Cancer DU-145; conditions: DU-145 (Prostate Cancer), 10^−4 molar
# Description: as §1
# MDA-MB-231/ATCC = assay: NCI screen, growth of human tumor cells: Breast Cancer MDA-MB-231/ATCC; conditions: MDA-MB-231/ATCC (Breast Cancer), 10^−4 molar
# Description: as §1
# K562 = assay: NCI screen, growth of human tumor cells: Leukemia K562; conditions: K562 (Leukemia), 10^−4 molar
# Description: as §1
# UO-31 = assay: NCI screen, growth of human tumor cells: Renal Cancer UO-31; conditions: UO-31 (Renal Cancer), 10^−4 molar
# Description: as §1
# HOP-92 = assay: NCI screen, growth of human tumor cells: Non-Small Cell Lung HOP-92; conditions: HOP-92 (Non-Small Cell Lung), 10^−4 molar
# Description: as §1
# LOXIMVI = assay: NCI screen, growth of human tumor cells: Melanoma LOXIMVI; conditions: LOXIMVI (Melanoma), 10^−4 molar
# Description: as §1
# SF-295 = assay: NCI screen, growth of human tumor cells: CNS Cancer SF-295; conditions: SF-295 (CNS Cancer), 10^−4 molar
# Description: as §1
# MCF 7 = assay: NCI screen, growth of human tumor cells: Breast Cancer MCF 7; conditions: MCF 7 (Breast Cancer), 10^−4 molar
# Description: as §1
# HOP-62 = assay: NCI screen, growth of human tumor cells: Non-Small Cell Lung HOP-62; conditions: HOP-62 (Non-Small Cell Lung), 10^−4 molar
# Description: as §1
# OVCAR-3 = assay: NCI screen, growth of human tumor cells: Ovarian Cancer OVCAR-3; conditions: OVCAR-3 (Ovarian Cancer), 10^−4 molar
# Description: as §1
# human cancer cells = assay: NCI screen summary over the cancers tested (negative growth of human cancer cells); conditions: 10^−4 M conc.; cancers with negative growth / cancers tested
# Description: as §1
# The derivatives in the tables are grouped using the same category as in the tables 1-6.
# RXF-393 = assay: NCI screen, growth of human tumor cells: Renal Cancer RXF-393; conditions: RXF-393 (Renal Cancer), 10^−4 molar
# Description: as §1
# UACC-62 = assay: NCI screen, growth of human tumor cells: Melanoma UACC-62; conditions: UACC-62, 10^−4 molar
# Description: as §1
# UACC-257 = assay: NCI screen, growth of human tumor cells: Melanoma UACC-257; conditions: UACC-257, 10^−4 molar
# Description: as §1
# OVCAR-8 = assay: NCI screen, growth of human tumor cells: Ovarian Cancer OVCAR-8; conditions: OVCAR-8 (Ovarian Cancer), 10^−4 molar
# Description: as §1
# CAKI-1 = assay: NCI screen, growth of human tumor cells: Renal Cancer CAKI-1; conditions: CAKI-1 (Renal Cancer), 10^−4 molar
# Description: as §1
# SK-MEL-28 = assay: NCI screen, growth of human tumor cells: Melanoma SK-MEL-28; conditions: SK-MEL-28 (Melanoma), 10^−4 molar
# Description: as §1
# MCF7/ADR-RES = assay: NCI screen, growth of human tumor cells: Breast Cancer MCF7/ADR-RES; conditions: MCF7/ADR-RES (Breast Cancer), 10^−4 molar
# Description: as §1
# HCT-116 = assay: NCI screen, growth of human tumor cells: Colon Cancer HCT-116; conditions: HCT-116, 10^−4 molar
# Description: as §1
# M14 = assay: NCI screen, growth of human tumor cells: Melanoma M14; conditions: M14 (Melanoma), 10^−4 molar
# Description: as §1
# MDA-MB-435 = assay: NCI screen, growth of human tumor cells: Breast Cancer MDA-MB-435; conditions: MDA-MB-435, 10^−4 molar
# Description: as §1
# HS 578T = assay: NCI screen, growth of human tumor cells: Breast Cancer HS 578T; conditions: HS 578T (Breast Cancer), 10^−4 molar
# Description: as §1
# SF-268 = assay: NCI screen, growth of human tumor cells: CNS Cancer SF-268; conditions: SF-268 (CNS Cancer), 10^−4 molar
# Description: as §1
# HL-60 (TB) = assay: NCI screen, growth of human tumor cells: Leukemia HL-60 (TB); conditions: HL-60 (TB) (Leukemia), 10^−4 molar
# Description: as §1
smiles,measurement,setting,value
"O=C1C(Cl)=C(C2S(=O)(=O)OCCOS2(=O)=O)C(=O)c2ccccc21 [NSC 731260, ethylene 3-chloro-1,4-naphtho-2-quinoylmethanedisulfonate]",percent of growth of human tumor cells,U-251,2%
same,percent of growth of human tumor cells,SW620,1%
same,percent of growth of human tumor cells,SK-MEL-5,−54%
same,percent of growth of human tumor cells,SR,15%
same,percent of growth of human tumor cells,BT-549,−32%
same,percent of growth of human tumor cells,OVCAR-4,11%
same,percent of growth of human tumor cells,HCT-15,17%
same,percent of growth of human tumor cells,SN12C,−12%
same,percent of growth of human tumor cells,SF-539,1%
same,percent of growth of human tumor cells,PC-3,9%
same,percent of growth of human tumor cells,NCI-H23,−54%
same,percent of growth of human tumor cells,ACHN,−12%
same,percent of growth of human tumor cells,NCI-H460,4%
same,percent of growth of human tumor cells,RPMI-8226,−36%
same,percent of growth of human tumor cells,DU-145,12%
same,percent of growth of human tumor cells,MDA-MB-231/ATCC,−15%
same,percent of growth of human tumor cells,K562,20%
same,percent of growth of human tumor cells,UO-31,30%
same,percent of growth of human tumor cells,HOP-92,−3%
same,percent of growth of human tumor cells,LOXIMVI,−43%
same,percent of growth of human tumor cells,SF-295,−46%
same,percent of growth of human tumor cells,MCF 7,6%
same,percent of growth of human tumor cells,HOP-62,−56%
same,percent of growth of human tumor cells,OVCAR-3,28%
same,Percentage of cancers showing negative growth cancers tested,human cancer cells,10^−4 M conc. = 16/37 = 43%
same,percent of growth of human tumor cells,RXF-393,28%
same,% Growth,UACC-62,−86%
same,% Growth,UACC-257,−74%
same,percent of growth of human tumor cells,OVCAR-8,18%
same,percent of growth of human tumor cells,CAKI-1,18%
same,percent of growth of human tumor cells,SK-MEL-28,−5%
same,percent of growth of human tumor cells,MCF7/ADR-RES,25%
same,% Growth,HCT-116,−89%
same,percent of growth of human tumor cells,M14,−58%
same,% Growth,MDA-MB-435,−79%
same,percent of growth of human tumor cells,HS 578T,8%
same,percent of growth of human tumor cells,SF-268,10%
same,percent of growth of human tumor cells,HL-60 (TB),13%
